According to patent publication US20010029033A1, “Novel gene rno upregulated in leukemia cells by nitric oxide and DMSO” (priority 2000, published 2001):
Each block holds one molecule with its values, some of them ahead of it.

How the values were obtained:
[1] = test system: rno expression in HL-60 cells; assay: RT-PCR analysis of rno expression in HL-60 cells treated with differentiating agents; assay type: cell-based, human; details: for rno expression (RT-PCR): DETA-NO 125 μM, DMSO 1.2% (v/v), VD3 100 nM; for time course of rno induction (RT-PCR): 125 μM DETA-NO or 1.2% DMSO added once, 24, 48, 72 hr; for rno expression (RT-PCR), sGC/cGMP pathway agents alone: ODQ 10 μM, 8-Br-cGMP 3 mM
Description: FIG. 4 is a […] showing the effect of differentiating agents on rno expression in HL-60 cells. For the upper panel, HL-60 cells were treated with DETA-NO, DMSO, or VD3 for 24 hours before analysis of rno expression by RT-PCR. Lane 1, no treatment control; Lane 2, DETA-NO; Lane 3, DMSO; Lane 4, VD3; Lane 5, water blank (no template); Lane 6, reverse transcriptase omitted from the reaction mixture; Lane 7, RT-PCR performed using RNA isolated from normal PMN (positive control). The positions of the size marker (MW) are indicated on the left. The positions of rno-1 and rno-3 are shown on the right. Referring to the lower panel, RT-PCR analysis of actin expression was used to control for the quality and integrity of the cDNA that was prepared from the various samples. Lane 1, no treatment control cells; Lane 2, cells treated with DETA-NO, Lane 3, cells treated with DMSO; Lane 4, cells treated with VD3; Lane 5, water blank (no template), Lane 6, RT-PCR performed using RNA isolated from normal PMN.
FIG. 5 illustrates the time course of rno induction in HL-60 cells. For the results of the upper panel, HL-60 cells were treated with 125 μM DETA-NO or 1.2% DMSO, and expression of rno was analyzed by RT-PCR at three different time points. MW, 100 bp DNA ladder; Lane 1, no-treatment control cells; Lane 2, cells treated with DETA-NO for 24 hr; Lane 3, cells treated with DETA-NO for 48 hr; Lane 4; cells treated with DETA-NO for 72 hr; Lane 5, cells treated with DMSO for 24 hr; Lane 6, cells treated with DMSO for 48 hr; Lane 7, cells treated with DMSO 72 hr; Lane 8, water blank (no template). The position of rno-1 is indicated on the left. For the results of the lower panel, RT-PCR analysis of actin expression was used to control for the quality and integrity of the cDNA that was prepared from the various samples. MW, 100 bp DNA ladder; Lane 1, no-treatment control cells; Lane 2, cells treated with DETA-NO for 24 hr; Lane 3, cells treated with DETA-NO for 48 hr; Lane 4; cells treated with DETA-NO for 72 hr; Lane 5, cells treated with DMO for 24 hr; Lane 6, cells treated with DMSO for 48 hr; Lane 7, cells treated with DMSO 72 hr. The position of actin is indicated on the left. DETA-NO upregulates rno within 24 hours and expression returns to baseline by 48 hours. DMSO also upregulates rno within 24 hours but expression persists through the entire 72 hr of exposure.
FIG. 6 illustrates the effect of cGMP on rno expression. In the upper pannel, HL-60 cells were treated with DETA-NO, 8Br-cGMP, ODQ, or ODQ and DETA-NO for 24 hours. Subsequently rno expression was analyzed by using RT-PCR. Lane 1, molecular mass standards (100 bp ladder); Lane 2, no-treatment control cells; Lane 3, DETA-NO; Lane 4, 8-Br-cGMP; Lane 5, ODQ; Lane 6, ODQ and DETA-NO; Lane 7, water blank (no cDNA template); Lane 8, reverse transcriptase omitted from one of the reaction mixtures. The position of rno-1 is indicated on the left. In the lower panel, RT-PCR analysis of actin expression was used to control for the quality and integrity of the cDNA that was prepared from the various samples. Lane 1,100 bp DNA ladder; Lane 2, no-treatment control; Lane 3, cells treated with DETA-NO; Lane 4, cells treated with 8Br-cGMP; Lane 5, cells treated with ODQ; Lane 6, cells treated with ODQ and DETA-NO. The position of actin is indicated on the left. Upregulation of rno by DETA-NO is cGMP-independent.
Referring to FIG. 4, RT-PCR was used to compare the effects of three differentiating agents on expression of rno. NO induces HL-60 cells to differentiate along the monocytic lineage. Magrinat, G et al. (1992) Blood, 80:1980-1986. DMSO is a granulocytic differentiation agent, while VD3 induces monocytic differentiation. Trayner, ID et al. (1998) Leuk Res., 22:537-547.
Referring to FIG. 4, both NO and DMSO induce expression of rno. To determine if the time-course of induction is similar, HL-60 cells were incubated with either DETA-NO or DMSO for 72 hr. […]

[2] = test system: rno expression in HL-60 cells; assay: Northern analysis of rno expression in DETA-NO treated HL-60 cells; assay type: cell-based, human; details: DETA-NO 125 μM, 24 hr, DP-3A probe
Description: FIG. 1 is a northern blot showing the induction of rno expression by NO. HL-60 cells were treated for 24 hr with DETA-NO (125 μM). Total cellular RNA was isolated and northern analysis was performed by using radiolabelled rno DP-3A as a probe as shown in the upper panel. […] The positions of the bands representing 28S and 18S ribosomal RNA are indicated on the left. Lane 1, RNA from control, untreated cells; Lane 2, RNA from DETA-NO treated cells.
The following two sets of cells were used for analysis of the effects NO on gene expression: control HL-60 cells incubated in media for 24 hours and HL-60 cells treated with 125 μM DETA-NO (a NO generating compound) for the same time period. Poly (A^+) RNA was prepared from the two sets of cells, and this material was used as template for the synthesis of double stranded cDNA. Following digestion with BglII, a set of primer/adapters was ligated to aliquots of each sample, and this cDNA was amplified by PCR to generate representations from the control and treated populations. By using the technique of RDA modified for cDNA, gene expression between the control and DETA-NO treated cells was compared. Lisitsyn, N et al. (1993) Science.259:946-951; Hubank, M & Schatz, D G (1994) Nucl Acids Res. 22:5640-5648; Kanai, N et al. (1999) Am J Hematol., 61:221-231. In the present study, two sets of subtraction/hybridizations were performed in parallel. […]

[3] = Half-life of NO release of DETA-NO; assay type: physicochemical; details: by the time the 48 hr sample was harvested, from half-life of 20 hr
Description: HL-60 cells were from ATCC (Rockville, Md.) and were cultured at 37° C. in a 5% CO2 humidified atmosphere at a density of 150,000 cells/ml. The culture medium consisted of RPMI-1640 supplemented with 10% fetal bovine serum and 1% Penicillin (10,000 U/mL)/Streptomycin (10 mg/mL). (Z)-1-[2-(2-Aminoethyl)-N-(2-ammonioethyl)amino]diazen-1-um-1,2-diolate] (DETA-NO) was used as a source of NO. DETA-NO belongs to the diazenium diolate class of NO donors and releases 2 molecules of NO per carrier moiety with a half-life of NO release of 20 hours. Keefer, L K et al. (1996) Methods in Enzymology.268:281-293. The effects of the following other differentiating agents on expression of rno were also investigated: dimethyl sulfoxide (DMSO); all-trans retinoic acid (ATRA); and vitamin D3 (VD3). DETA-NO, DMSO, ATRA, or VD3 were added once to HL-60 cells at the time of culture initiation at concentrations of 125 μM, 1.2% (v/v), 1 μM, and 100 nM, respectively. For studies of the role of the soluble guanylate cyclase (sGC)/cGMP signal transduction pathway in NO upregulation of rno, the sGC inhibitor 1H-[1,2,4]oxadiazolo[4,3-a]quinoxalin-1 -one (ODQ) and the cell permeable cGMP analogue 8-Br-cGMP at concentrations of 10 μM were used and 3 mM, respectively. Brunner, F et al. (1996) J Pharmacol Exp Ther. 277:48-53; Boss, GR.(1989) Proc Natl Acad Sci USA. 86:7174-7178. […]

SMILES: C=C1CC[C@H](O)C/C1=C/C=C1\CCC[C@]2(C)[C@@H]([C@H](C)CCCC(C)C)CC[C@@H]12 [VD3, vitamin D3]
rno expression (RT-PCR) ([1]; 24 hours): not by VD3

SMILES: CC1=C(/C=C/C(C)=C/C=C/C(C)=C/C(=O)O)C(C)(C)CCC1 [ATRA, all-trans retinoic acid]
rno expression (RT-PCR), data not shown ([1]; ATRA 1 μM, even after 72 hr of exposure): no effect on rno expression

decrease of functional activity of the reagent [3]: more than 75%
SMILES: NCCN(CCN)/[N+]([O-])=N/O [DETA-NO]
rno expression (northern blot) [2]: upregulates rno expression
time course of rno induction (RT-PCR) [1]: evident at 24 hr and returned to baseline by 48 hr
rno expression (RT-PCR) ([1]; 24 hours): upregulated

SMILES: O=c1onc2cnc3ccccc3n12 [ODQ, 1H-[1,2,4]oxadiazolo[4,3-a]quinoxalin-1-one]
rno expression (RT-PCR), sGC/cGMP pathway agents alone ([1]; 24 hours): did not upregulate rno expression
effect of sGC inhibitor on induction of rno by DETA-NO (RT-PCR) ([1]; ODQ and DETA-NO in combination, 24 hours): did not prevent the induction of rno by DETA-NO

SMILES: C[S+](C)[O-] [DMSO, dimethyl sulfoxide]
time course of rno induction (RT-PCR) [1]: induced expression of rno within 24 hr, however, expression persisted through the entire 72 hr observation period
rno expression (RT-PCR) ([1]; 24 hours): upregulated

SMILES: Nc1nc2c(nc(Br)n2[C@@H]2O[C@@H]3COP(=O)(O)O[C@H]3[C@H]2O)c(=O)[nH]1 [8-Br-9 cGMP]
rno expression (RT-PCR), sGC/cGMP pathway agents alone ([1]; 24 hours): did not induce rno expression
